Assay results reported in patent US20090263509A1, “ANTIBACTERIAL AGENT AND ANTIBACTERIAL COMPOSITION” (SAKAMOTO BIO CO., LTD, priority 2004, published 2009).
Values after ≈ are worked out from the molar mass of the structure shown.

Experiments:
Assay type in all cases: cell-based
[1] = system: Staphylococcus aureus (IFO13276 ATCC6538); assay: Antimicrobial activity, agar medium dilution method (MIC / growth observation); set-up: key to Antibacterial Effect with Specimen Concentration: A: antibacterially effective; B: bacteriostatically active; C: some growth inhibiting effective; D: non effective
Description: (§1) Antimicrobial activity was assayed using the method described below. Paraben was used as a positive control. Staphylococcus aureus (IFO13276 ATCC6538), Candida albicans (IFO1594 ATCC10231), Aspergillus niger (IFO9455 ATCC16401), Pseudomonas aeruginosa (IFO013275 ATCC9027), Escherichia coli (IFO3972 ATCC8739) Antibacterial effect was evaluated by using either qualitative observation of the growing strains in the presence of each specimen or measuring the minimum inhibitory concentration (MIC) of the strains. An agar medium dilution method was adopted for the evaluation using Mueller-Hinton agar media (Eiken Chemical Co., Ltd.). The experiment was performed using the MIC test method following the standards of the Japanese Society of Chemotherapy. More specifically, each specimen was measured, when dissolved in 50/50 ethanol/water mixture and used to prepare 1 mL of each test specimen. 9 mL of measuring medium was added to the test specimens to create an agar plate. […] of the experimental bacterial liquid (live bacteria: 10^6-10^8/mL) was added to the agar plate. The growth and development of the bacteria was judged and recorded after it was cultured for 24 hours at 37° C. The minimum concentration that inhibited bacterial growth was regarded as MIC. The evaluation results of Example 1 are shown in Table 1 (MIC Rate) and Table 2 (Antibacterial Effect with Specimen Concentration). The MIC rates in Table 1 are given in μg/ml. […] The meaning of the symbols used in Table 2 is as follows: A: antibacterially effective, B: bacteriostatically active, C: some growth inhibiting effective, D: non effective.

[2] = system: Candida albicans (IFO1594 ATCC10231); assay: as above; set-up: key to Antibacterial Effect with Specimen Concentration: A: antibacterially effective; B: bacteriostatically active; C: some growth inhibiting effective; D: non effective
Description: as §1

[3] = system: Aspergillus niger (IFO9455 ATCC16401); assay: as above; set-up: key to Antibacterial Effect with Specimen Concentration: A: antibacterially effective; B: bacteriostatically active; C: some growth inhibiting effective; D: non effective
Description: as §1

[4] = system: Escherichia coli (IFO3972 ATCC8739); assay: Antimicrobial activity, agar medium dilution method (MIC); settings: Mueller-Hinton agar, 24 hours at 37° C.
Description: (§2) Antimicrobial activity was assayed using the method described below. Paraben was used as a positive control. Staphylococcus aureus (IFO13276 ATCC6538), Candida albicans (IFO1594 ATCC10231), Aspergillus niger (IFO9455 ATCC16401), Pseudomonas aeruginosa (IFO013275 ATCC9027), Escherichia coli (IFO3972 ATCC8739) Antibacterial effect was evaluated by using either qualitative observation of the growing strains in the presence of each specimen or measuring the minimum inhibitory concentration (MIC) of the strains. An agar medium dilution method was adopted for the evaluation using Mueller-Hinton agar media (Eiken Chemical Co., Ltd.). The experiment was performed using the MIC test method following the standards of the Japanese Society of Chemotherapy. More specifically, each specimen was measured, when dissolved in 50/50 ethanol/water mixture and used to prepare 1 mL of each test specimen. 9 mL of measuring medium was added to the test specimens to create an agar plate. […] of the experimental bacterial liquid (live bacteria: 10^6-10^8/mL) was added to the agar plate. The growth and development of the bacteria was judged and recorded after it was cultured for 24 hours at 37° C. The minimum concentration that inhibited bacterial growth was regarded as MIC. The evaluation results of Example 1 are shown in Table 1 (MIC Rate) and Table 2 (Antibacterial Effect with Specimen Concentration). […]

[5] = system: Pseudomonas aeruginosa (IFO013275 ATCC9027); assay: as above; settings: Mueller-Hinton agar, 24 hours at 37° C.
Description: as §2

[6] = Mueller-Hinton agar, 24 hours at 37° C.
[7] = specimen concentration 50 μg/ml
[8] = specimen concentration 500 μg/ml

Compound | MIC [1, 6] | MIC [2, 6] | MIC [3, 6] | MIC [4] | MIC [5] | Antibacterial Effect with Specimen Concentration [1, 7] | Antibacterial Effect with Specimen Concentration [1, 8] | Antibacterial Effect with Specimen Concentration [2, 7] | Antibacterial Effect with Specimen Concentration [2, 8] | Antibacterial Effect with Specimen Concentration [3, 7] | Antibacterial Effect with Specimen Concentration [3, 8]
O=C(O)c1ccc(O)cc1 [Paraben, reference compound] | 800 µg/mL (≈ 5.79 mM) | 500 µg/mL (≈ 3.62 mM) | 300 µg/mL (≈ 2.17 mM) | 800 µg/mL (≈ 5.79 mM) | 1000 µg/mL (≈ 7.24 mM) | – | – | – | – | – | –
COC1=C(OC)C(=O)C(C2COc3cc(O)ccc3C2)=CC1=O (centres unmarked) [Pendulone, pendulone] | – | – | – | – | – | A | A | C | A | C | A
COc1ccc(C2COc3cc(O)ccc3C2)c(OC)c1O (single isomer, unassigned) [Mucronulatol, mucronulatol] | – | – | – | – | – | A | A | C | A | C | A
COC1=C(OC)C(=O)C(C2COc3c(ccc(O)c3OC)C2)=CC1=O (single isomer, unassigned) [Amorphaquinone, amorphaquinone] | – | – | – | – | – | A | A | B | A | C | A
COc1cc(O)c(OC)c(OC)c1C1COc2cc(O)ccc2C1 (centres unmarked) | – | – | – | – | – | D | C | C | C | C | A
